Test system: hepatic gene expression
Assay: Hepatic RNA-Seq differential gene expression (fold change, P1(t), ED50, BMD, BMDL)
Type: in vivo, mouse
Description: Frozen ileal epithelium scrapings and liver samples were homogenized in TRIzol (Ambion, Waltham, MA) using a Mixer Mill 300 tissue homogenizer (Retsch, Germany) and total RNA was isolated as previously described. RNA was quantified using a Nano-drop spectrophotometer (Thermo Scientific, Wilmington, DE) at 260 nm, and purity was assessed using the A260/A280 ratio and the Caliper LabChip GX (Perkin Elmer, Waltham, MA).
Dose-dependent gene expression was examined using RNA-Seq performed at the MSU Research Technology Support Facility (RTSF) Genomics Core (rtsf.natsci.msu.edu/genomics). Ileal libraries from three independent biological replicates (n = 3) were prepared using the Ovation Mouse RNA-Seq System 1–16 sample preparation kit (NuGen, San Carlos, CA), with an additional DNase step. Libraries were quantified and sequenced as previously described, using a read depth of ~30 M per sample[33], [67]. Quality was determined using FASTQC v0.11.3 and adaptor sequences were removed using Trimmomatic v0.33. Reads were mapped to the mouse reference genome (GRCm38 release 81) using Bowtie2 v2.2.6 and TopHat2 v2.1.0. Alignments were converted to SAM format using SAMTools v1.2.0. For TCDD-mediated differential gene expression, fold changes were calculated relative to vehicle controls. Hepatic RNA-Seq analysis was previously published. Genes were considered differentially expressed if |fold change| ≥ 1.5 and statistical P1(t) value ≥ 0.8 at one or more doses. RNA-Seq datasets for the ileal epithelium and liver were deposited in the Gene Expression Omnibus (GEO; accession number GSE89430 and GSE87519, respectively). The RNA-Seq results (fold changes, P1(t) values) for each gene discussed in the manuscript have been compiled in Supplementary Table S1. […] Estimation of benchmark dose (BMD) and BMD lower confidence limit (BMDL) was performed using BMDExpress[69] as previously described, and has been included in Supplementary Table S1.

[1] = liver, 0.3 µg/kg TCDD, relative to vehicle control
[2] = liver, 1 µg/kg TCDD, relative to vehicle control
[3] = liver, 3 µg/kg TCDD, relative to vehicle control
[4] = liver, 10 µg/kg TCDD, relative to vehicle control
[5] = liver, 30 µg/kg TCDD, relative to vehicle control
[6] = male mice, 30 µg/kg TCDD every 4 d for 28 d
[7] = male mice, TCDD every 4 d for 28 d

Clc1cc2c(cc1Cl)Oc1cc(Cl)c(Cl)cc1O2 [TCDD, 2,3,7,8-tetrachlorodibenzo-p-dioxin]
Slco1b2 (OATP1B2) FC_0.3 [1]: 1.08 | Slco2b1 (OATP2B1) FC_0.3 [1]: 0.92 | Soat1 FC_0.3 [1]: 0.85 | Soat2 FC_0.3 [1]: 1.22 | Sqle FC_0.3 [1]: 2.08 | Srebf2 FC_0.3 [1]: 1.06 | Sult2a8 FC_0.3 [1]: 0.81 | Tm7sf2 FC_0.3 [1]: 1.05 | Slc6a6 (TAUT) FC_1 [2]: 1.28 | Slc10a1 (NTCP or LBAT) FC_1 [2]: 1.21 | Slc27a5 FC_1 [2]: 0.86 | Slco1a1 (OATP1A1) FC_1 [2]: 1.33 | Slco1a4 (OATP1A4) FC_1 [2]: 0.45 | Slco1b2 (OATP1B2) FC_1 [2]: 1.13 | Slco2b1 (OATP2B1) FC_1 [2]: 1.01 | Soat1 FC_1 [2]: 0.53 | Soat2 FC_1 [2]: 1.23 | Sqle FC_1 [2]: 1.92 | Srebf2 FC_1 [2]: 0.99 | Sult2a8 FC_1 [2]: 0.89 | Tm7sf2 FC_1 [2]: 0.89 | Slc6a6 (TAUT) FC_3 [3]: 1.14 | Slc10a1 (NTCP or LBAT) FC_3 [3]: 1.09 | Slc27a5 FC_3 [3]: 0.81 | Slco1a1 (OATP1A1) FC_3 [3]: 1.24 | Slco1a4 (OATP1A4) FC_3 [3]: 0.40 | Slco1b2 (OATP1B2) FC_3 [3]: 0.92 | Slco2b1 (OATP2B1) FC_3 [3]: 0.90 | Soat1 FC_3 [3]: 0.77 | Soat2 FC_3 [3]: 1.08 | Sqle FC_3 [3]: 1.74 | Srebf2 FC_3 [3]: 0.93 | Sult2a8 FC_3 [3]: 0.65 | Tm7sf2 FC_3 [3]: 1.24 | Slc6a6 (TAUT) FC_10 [4]: 1.16 | Slc10a1 (NTCP or LBAT) FC_10 [4]: 0.56 | Slc27a5 FC_10 [4]: 0.48 | Slco1a1 (OATP1A1) FC_10 [4]: 0.0276 | Slco1a4 (OATP1A4) FC_10 [4]: 0.46 | Slco1b2 (OATP1B2) FC_10 [4]: 0.65 | Slco2b1 (OATP2B1) FC_10 [4]: 0.40 | Soat1 FC_10 [4]: 1.16 | Soat2 FC_10 [4]: 0.80 | Sqle FC_10 [4]: 2.07 | Srebf2 FC_10 [4]: 0.85 | Sult2a8 FC_10 [4]: 0.12 | Tm7sf2 FC_10 [4]: 0.97 | Slc6a6 (TAUT) FC_30 [5]: 1.84 | Slc10a1 (NTCP or LBAT) FC_30 [5]: 0.056 | Slc27a5 FC_30 [5]: 0.06 | Slco1a1 (OATP1A1) FC_30 [5]: 0.000843 | Slco1a4 (OATP1A4) FC_30 [5]: 0.40 | Slco1b2 (OATP1B2) FC_30 [5]: 0.13 | Slco2b1 (OATP2B1) FC_30 [5]: 0.08 | Soat1 FC_30 [5]: 3.59 | Soat2 FC_30 [5]: 0.51 | Sqle FC_30 [5]: 0.23 | Srebf2 FC_30 [5]: 0.37 | Sult2a8 FC_30 [5]: 0.00374 | Tm7sf2 FC_30 [5]: 0.0549 | Fgfr4 hepatic expression, fold repression [6]: 4.7 fold | Hmgcr hepatic expression [6]: no significant induction | Klb hepatic expression, fold repression [6]: 8.1 fold | Srebf2 hepatic expression, fold repression [6]: 2.7 fold | Hmgcr hepatic expression, max fold induction (male mice, 0.3–10 µg/kg TCDD every 4 d for 28 d): 3.4 fold | Abcb11 hepatic expression, fold repression [7]: 4.7 fold | Abcc2 hepatic expression [7]: unchanged | Akr1c6 hepatic expression, fold repression [7]: 22.1 fold | Akr1d1 hepatic expression, fold repression [7]: 16.3 fold | Amacr hepatic expression, fold repression [7]: 3.3 fold | Baat hepatic expression, fold repression [7]: 12.0 fold | Cdo1 hepatic expression, fold repression [7]: 2.7 fold | Ch25h hepatic expression, fold induction [7]: 6.1 fold | Csad hepatic expression, fold repression [7]: 4.5 fold | Cyp3a11 hepatic expression, fold repression [7]: 4.9 fold | Cyp3a13 hepatic expression, fold repression [7]: 17.0 fold | Cyp3a16 hepatic expression, fold repression [7]: 5.2 fold | Cyp3a25 hepatic expression, fold repression [7]: 6.0 fold | Cyp3a44 hepatic expression, fold repression [7]: 3.0 fold | Cyp3a57 hepatic expression, fold repression [7]: 2.4 fold | Cyp3a59 hepatic expression, fold repression [7]: 4.4 fold | Cyp7a1 hepatic expression, fold repression [7]: 39.7 fold | Cyp7b1 hepatic expression, fold repression [7]: 7.6 fold | Cyp8b1 hepatic expression, fold repression [7]: 4.4 fold | Cyp27a1 hepatic expression, fold repression [7]: 2.4 fold | Cyp46a1 hepatic expression, fold repression [7]: 2.1 fold | Hsd3b7 hepatic expression, fold repression [7]: 2.5 fold | Nr0b2 hepatic expression, fold repression [7]: 22.2 fold | Nr1h4 hepatic expression, fold repression [7]: 3.2 fold | Scp2 hepatic expression, fold repression [7]: 3.4 fold | Slc10a1 hepatic expression, fold repression [7]: 17.9 fold | Slc27a5 hepatic expression, fold repression [7]: 16.0 fold | Slco1a1 hepatic expression, fold repression [7]: 1186.3 fold | Slco1a4 hepatic expression, fold repression [7]: 2.5 fold | Slco1b2 hepatic expression, fold repression [7]: 7.9 fold | Slco2b1 hepatic expression, fold repression [7]: 12.9 fold | Sult2a8 hepatic expression, fold repression [7]: 267.5 fold

Reference: publication PMC5517430, “2,3,7,8-Tetrachlorodibenzo-p-dioxin (TCDD)-elicited effects on bile acid homeostasis: Alterations in biosynthesis, enterohepatic circulation, and microbial metabolism” (Scientific Reports, 2017)
